In brackets after ≈: the same amount, converted by molar mass.
Columns and labels:
P388 murine leukemia = assay: In vivo P388 murine leukemia model, ip implant / ip treatment; parameters: species or system murine (CDF1 female mice); conditions: for median survival time: untreated controls 10 days
Experimental: (§1) BMY-42448 was also tested in vivo in the P388 murine leukemia model. When 1×10^6 leukemia cells are implanted ip into CDF1 female mice, the median survival time for untreated controls was 10 days. […] Mice treated with 45 or 15 mg/kg BMY-42448 on the same schedule had median survival time of 13.5 and 13 days, respectively. Each drug treatment group consisted of 4 mice. The positive control reference drug, olivomycin A, was dosed at 0.4 and 0.2 mg/kg once a day for 5 days beginning one day after implant, with median survival times of 16.5 and 16 days, respectively. Both drugs were administered via the intraperitoneal route. Thus, BMY-42448 was active in the ip/ip P388 model with a maximum tolerated dose of 45 mg/kg.

B-16 melanoma = assay: In vitro cytotoxicity, crystal violet staining; type: cell-based, murine; conditions: for IC50: Mus musculus, B16, 72 h, B-16 melanoma, 3 days with drug
Experimental: (§2) A 150 μl aliquot of culture media containing 3750 cells was plated into each well of a 96 well microtiter plate on day 0 and allowed to attach by incubation for 24 hours at 37° C. in a 5% carbon dioxide atmosphere. Drugs were then added to the top row of the wells and serially diluted down the plate (except for the untreated control column on each plate). The cells and drug were incubated together as above for 3 days. Following incubation, dead unattached cells and media were removed by inverting the plate. Cells that are undamaged by the drug remain attached to the plate. […] The fixing solution was removed by inverting the plate and the plates were air-dried.

HCT-116 colon = assay: In vitro cytotoxicity, crystal violet staining; type: cell-based, human; conditions: for IC50: Homo sapiens, 72 h, HCT-116 colon, 3 days with drug
Experimental: as §2

P388 tumor = assay: iv-implanted P388 tumor model; type: in vivo, murine (CDF1 female mice)
Experimental: BMY-42448 was tested in an iv-implanted P388 tumor model. In this model 1×10^6 cells are implanted intravenously in CDF1 female mice. […] Mitomycin C given iv once at 3.2 mg/kg on the day after tumor implant extended median survival to 12 days after tumor implant. BMY-42448 was toxic when administered iv at 10 mg/kg every other day for 3 doses beginning one day after tumor implant.

[1] = In vivo P388 murine leukemia model, ip implant / ip treatment; parameters: species or system murine (CDF1 female mice); conditions: mouse, p388 leukemia model; ip once a day for 5 days; read-out: maximum tolerated dose
Experimental: as §1

Compound | median survival time (P388 murine leukemia; 0.2 mg/kg ip once a day for 5 days) | median survival time (P388 murine leukemia; 0.4 mg/kg ip once a day for 5 days) | IC50 (B-16 melanoma) | IC50 (HCT-116 colon) | median survival (P388 tumor; 3.2 mg/kg iv once on the day after tumor implant, untreated control 8 days) | activity on the B-16 melanoma cell line compared with reference drug (B-16 melanoma; compared with cisplatin) | median survival time (P388 murine leukemia; 15 mg/kg ip once a day for 5 days) | median survival time (P388 murine leukemia; 45 mg/kg ip once a day for 5 days) | outcome (drug toxicity) (P388 murine leukemia; 135 mg/kg ip once a day for 5 days beginning 1 day after tumor implant) | activity in the ip/ip P388 model (P388 murine leukemia; ip implant, ip treatment) | MTD [1] | activity on the HCT-116 colon cancer line compared with reference drug (HCT-116 colon; compared with mitomycin C) | median life span (P388 tumor; 1.25 mg/kg iv every other day for 3 doses, untreated control 8 days) | median life span (P388 tumor; 2.5 mg/kg iv every other day for 3 doses, untreated control 8 days) | median life span (P388 tumor; 5 mg/kg iv every other day for 3 doses, untreated control 8 days) | toxicity (P388 tumor; 10 mg/kg iv every other day for 3 doses beginning one day after tumor implant) | activity in iv-implanted P388 model (P388 tumor; 5, 2.5 or 1.25 mg/kg iv every other day for 3 doses)
olivomycin A [reference compound] | 16 days | 16.5 days |  |  |  |  |  |  |  |  |  |  |  |  |  |  | 
CO[C@@]12[C@H](COC(N)=O)C3=C(C(=O)C(C)=C(N)C3=O)N1C[C@@H]1N[C@@H]12 [Mitomycin C, reference compound] |  |  | 0.98 µg/mL (≈ 2.93 µM) | 0.25 µg/mL (≈ 0.748 µM) | 12 days |  |  |  |  |  |  |  |  |  |  |  | 
CCC1CC23OC(=O)C(=C2O)C(=O)C2(CC)C(C=CC4C(OC5CC(O)C(NC(=O)c6[nH]c(Cl)cc6Cl)C(C)O5)C(C)CCC42)CC=CCC=CC3(C)C=C1C(=O)O (stereo not shown) [BMY-42448] |  |  | 16 µg/mL (≈ 19 µM) | 0.25 µg/mL (≈ 0.297 µM) |  | equal to that of cisplatin | 13 days | 13.5 days | died of drug toxicity | active | 45 mg/kg | equivalent to that of mitomycin C | 8 days | 8 days | 8 days | toxic | inactive

— US5270186A, “Antitumor antibiotic BMY-42448” (Bristol-Myers Squibb Company, priority 1991, dated 1993)
